Test results published in publication PMC9787607, “A Novel Protocol for the Synthesis of 1,2,4-Oxadiazoles Active against Trypanosomatids and Drug-Resistant Leukemia Cell Lines” (Tropical Medicine and Infectious Disease, 2022).

Tests used:
[1] = system: Lucena-1 (K562/VCR); assay: cells; type: cell-based, human; details: for RR (relative resistance) Lucena-1: (EC50 MDR cells)/(EC50 parental cells), Lucena-1/K562; for EC50: Homo sapiens, Lucena 1, 72 h, read-out: EC50 Lucena-1
Procedure: (§1) The CML cell lines K562, Lucena-1 (K562/VCR), and FEPS (K562/DNR) were cultured in RPMI-1640 medium supplemented with 25 mM HEPES and 2 g L^−1 sodium bicarbonate adjusted to pH 7.4 with NaOH, 100 U penicillin and […] streptomycin. All media were supplemented with 10% FBS. Dr. Vivian M. Rumjanek (Instituto de Bioquímica Médica, UFRJ, Brazil) kindly donated Lucena-1 and FEPS cells. Briefly, K562 cells were exposed to increasing concentrations of the chemotherapeutic drugs vincristine sulfate (VCR) and daunorubicin hydrochloride (DNR) (both from Sigma-Aldrich), as described previously. Lucena-1 (K562/VCR) and FEPS (K562/DNR) cells were cultured in the presence of either 60 nM VCR or 500 nM DNR to maintain the MDR phenotypes. For subcultures, cells were harvested every three days followed by washing with cold FBS, and a final concentration of 2 × 10^4 cells mL^−1 was maintained at 37 °C in 5% CO2.
(§2) Cell viability was determined by the 3-(4,5-dimethylthiazol-2-yl)-2,5-diphenyltetrazolium (MTT) colorimetric assay. CML cells (2 × 10^4 cells·mL^−1) were incubated for 72 h at 37 °C, followed by treatment with compounds at a range of concentrations (100–1 μM). Negative controls were prepared with 0.5% DMSO. An MTT salt solution was added to each well to a final concentration of 0.5 g·L^−1, and plates were incubated at 37 °C in 5% CO2 for 3 h. After centrifugation, 200 μL DMSO was added to dissolve the dark-blue formazan crystals formed by MTT reduction. Absorbance was measured on a microplate reader at 570 nm, which is directly proportional to formazan contents and indicative of living cells.
(§3) The percent cell or parasite viability was calculated by the formula: % viability = [(A − P)/(N − P)] × 100, A = absorbance of specific well, P = positive control, N = negative control. Determination of half-maximal effective concentrations (EC50), calculated by logarithmic regression, and significance analysis (p < 0.05), using ANOVA and Dunnett’s test, by GraphPad Prism 7.0 software. The results are expressed as the mean and standard deviation (SD) of three independent experiments.

[2] = system: K562; assay: MTT cytotoxicity to CML cell line K562; type: cell-based; details: Homo sapiens, 72 h
Procedure: as §1, §2, §3

[3] = Cytotoxicity to BALB/c mouse total splenocytes (MTT); type: cell-based; details: male, total splenocytes (primary), 100 μM, 48 h, compared to the untreated control (Table S1)
Procedure: BALB/c mouse total splenocytes were harvested from male mice between 6–8 weeks old. After euthanasia, the spleens were removed and macerated in DMEM. After centrifugation, the cells were treated with hemolytic ACK buffer at 37 °C for 5 min. […] After incubation for 48 h at 37 °C in 5% CO2, cell viability was determined after the addition of 20 µL per well of a solution containing MTT salt (3.0 mM) and phenazine metasulphate (0.72 mM). After further incubation for 1 h at 37 °C, the medium was removed, and DMSO was added to dissolve the dark-blue formazan crystals formed by MTT reduction. Absorbance was measured on a microplate reader at 570 nm.
as §3

[4] = Cytotoxicity to LLC-MK2 host cells (MTT); type: cell-based; details: rhesus monkey, screening at 50 μM, 120 h
Procedure: LLC-MK2 kidney fibroblasts (ATCC) and RAW 264.7 macrophages (ATCC) were cultivated in culture flasks in complete DMEM with 5% FBS at 37 °C in 5% CO2. The LLC-MK2 cell monolayer was detached by treatment with trypsin-EDTA 0.05% for 5 min at 37 °C. The RAW cell monolayer was detached mechanically. In both cases, the cells were centrifuged at 480× g for 6 min and resuspended in complete DMEM with 5% FBS, and the cell density was determined by counting with trypan-blue dye exclusion on Neubauer chambers before use.
LLC-MK2 cells were seeded in a 96-well microplate (1.0 × 10^4 cells per well) in complete DMEM with 5% FBS (120 µL per well). After incubation for 24 h at 37 °C in 5% CO2, the medium was renewed, and compounds were added at a range of concentrations in triplicate (50 μM or 100–1 μM). Untreated cells and cells treated with DMEM and 10% DMSO were used as negative and positive controls, respectively. Vehicle control containing DMEM and 0.3% DMSO was maintained for comparison. After incubation for 120 h at 37 °C in 5% CO2, the medium was renewed, and MTT salt solution in PBS was added (3.0 mM, 20 µL per well). After incubation for 2 h at 37 °C in 5% CO2, the supernatant was removed, and MTT formazan was dissolved in DMSO (150 µL per well). Absorbance was measured using a microplate reader at 570 nm.
as §3

[5] = system: L. amazonensis promastigotes; assay: Anti-L. amazonensis promastigote assessment (MTT); type: cell-based; details: Leishmania amazonensis; 48 h, MTT; read-out: EC50 L. amazonensis promastigotes
Procedure: Promastigotes of L. amazonensis (MHOM/BR/75/Josefa) were cultured in Schneider’s insect medium (SIM) with 10% FBS. Parasites were harvested at the stationary growth phase for assessment against promastigotes and 24 h after cultures reached the stationary growth phase for infection assays. […]. Complete SIM media and amphotericin B (AmB) at 10 µM were used as negative and positive controls, respectively. A vehicle control containing SIM with 10% SFB media and 0.3% DMSO was maintained for comparison. The final volume of the experiment was 100 µL. After incubation for 48 h at 27 °C, MTT salt solution in PBS was added (3.0 mM, 20 µL per well). After incubation for 2 h at 27 °C, the MTT formazan was dissolved by adding 120 µL of solubilizing buffer (50% isopropanol, 40% acetate buffer pH 5.4, 10% Triton-X). Absorbance was measured using a microplate reader at 570 nm.
as §3

[6] = system: T. cruzi amastigotes (Tulahuen C2C4 LacZ strain); assay: microbe, parasite or virus in culture; type: cell-based, Trypanosoma cruzi; details: Trypanosoma cruzi, TULAHUEN, LLC-MK2, 120 h, screening at 50 μM, 120 h, compared with untreated controls
Procedure: To a monolayer of 1.0 × 10^7 LLC-MK2 cells in a 150 cm^2 culture flask were added 5.0 × 10^7 trypomastigotes of T. cruzi expressing the […] (Tulahuen C2C4 LacZ) in complete DMEM with 2.5% FBS. The infection was allowed to occur for 24 h, the supernatant was removed, and the cell monolayer was washed with PBS. Complete DMEM with 2.5% FBS was renewed every 2 days up to the sixth day after infection. Trypomastigote forms were collected daily from the supernatant between days 7 and 12 after infection, enriched by differential centrifugation (1500× g for 10 min, 5580× g for 20 min), and resuspended in complete DMEM with 5% FBS. Parasite density was determined by counting the mobile trypomastigotes on Neubauer chambers before use.
. The medium was renewed, and trypomastigote forms of T. cruzi (Tulahuen C2C4 LacZ strain, 2.0 × 10^5 parasites per well) were added. After incubation for 24 h at 37 °C in 5% CO2, the cell monolayer was washed with PBS to remove noninternalized parasites. DMEM without phenol red and 5% FBS was added, and infected cells were treated with compounds at a range of concentrations in triplicate (50 μM or 100–1 μM). Untreated infected cells and noninfected LLC-MK2 cells were used as negative and positive controls, respectively. Vehicle control containing DMEM without phenol red and 0.3% DMSO was maintained for comparison. After incubation for 120 h at 37 °C in 5% CO2, a solution containing […] and 0.8% IGEPAL CA-630 in PBS (30 µL per well), followed by further incubation for 2 h at 37 °C in 5% CO2. Absorbance was measured using a microplate reader at 570 nm.
as §3

[7] = system: FEPS (K562/DNR); assay: MTT cytotoxicity to MDR CML cell line FEPS; type: cell-based, human; details: for RR (relative resistance) FEPS: (EC50 MDR cells)/(EC50 parental cells), FEPS/K562; for EC50: Homo sapiens, K562, 72 h, MTT
Procedure: as §1, §2, §3

[8] = LLC-MK2 cells (kidney fibroblasts)

Row | Compound | RR (relative resistance) Lucena-1 [1] | EC50 [1] [µM] | EC50 [2] [µM] | viability at 48 h, 100 µM [3] [%] | viability at 120 h, 50 µM [4, 8] [%] | EC50 [5] [µM] | viability at 50 µM [6] [%] | RR (relative resistance) FEPS [7] | EC50 [7] [µM] | melting point [°C] | viability at 120 h, 50 µM [4] [%]
1 | Clc1ccc(/C=C/c2nc(-c3ccccc3)no2)cc1 [Compound 19, (E)-3-phenyl-5-[2-(4-chlorophenyl)vinyl]-1,2,4-oxadiazole] | 0.92 | 43.4 ± 3.4 | 47.1 ± 1.2 | 90.5 ± 5.3 | 77.8 ± 0.9 | > 100 | 83.4 ± 5.9 | >2.12 | > 100 | – | –
2 | C(=C\c1cccs1)/c1nc(-c2ccccc2)no1 [Compound 17, (E)-3-phenyl-5-[2-thiophen-2-yl-vinyl]-1,2,4-oxadiazole] | <0.72 | 71.9 ± 0.6 | > 100 | 99 ± 8.4 | – | 77.6 ± 6.3 | 69.6 ± 6.3 | <0.56 | 55.7 ± 17.2 | 93 to 95 | 86.2 ± 7.1
3 | O=[N+]([O-])c1ccc(/C=C/c2nc(-c3ccccc3)no2)cc1 [Compound 20, (E)-3-phenyl-5-[2-(4-nitrophenyl)vinyl]-1,2,4-oxadiazole] | 1.33 | 45.7 ± 4.3 | 34.4 ± 7.4 | 77.8 ± 4.2 | 78.2 ± 2.1 | > 100 | 74.5 ± 5.4 | 1.35 | 46.4 ± 4.9 | 205 to 208 | –
4 | COc1cc(-c2noc(/C=C/c3ccco3)n2)cc(OC)c1OC [Compound 25, (E)-3-(3,4,5-trimethoxyphenyl)-5-[2-(fur-2-yl)vinyl]-1,2,4-oxadiazole] | 1.05 | 76.6 ± 6.1 | 72.8 ± 9.1 | 63.7 ± 4.7 | 73.5 ± 1.7 | > 100 | 79.5 ± 5.5 | 0.74 | 53.7 ± 3.6 | 144 to 146 | –
5 | C(=C\c1nc(-c2ccccc2)no1)/c1ccco1 [Compound 16, (E)-3-phenyl-5-[2-fur-2-yl-vinyl]-1,2,4-oxadiazole] | 1.23 | 65 ± 9.6 | 52.8 ± 17.7 | 53.5 ± 5.2 | 89.2 ± 1.4 | 47.1 ± 3.7 | 83 ± 3.7 | 1.03 | 54.7 ± 1.7 | 83 to 85 | –
6 | C(=C\c1nc(-c2ccccc2)no1)/c1ccccc1 [Compound 9, (E)-3-phenyl-5-[2-phenylvinyl]-1,2,4-oxadiazole] | – | > 100 | > 100 | 102 ± 7.4 | 87.2 ± 4 | 74.5 ± 4.9 | 87 ± 4.9 | – | > 100 | – | –
7 | COc1cc(-c2noc(/C=C/c3ccccc3)n2)cc(OC)c1OC [Compound 21, (E)-3-(3,4,5-trimethoxyphenyl)-5-[2-phenylvinyl]-1,2,4-oxadiazole] | <0.69 | 68.6 ± 10.1 | > 100 | 76.8 ± 6.6 | 88.5 ± 4.7 | > 100 | 77.3 ± 2 | <0.28 | 27.7 ± 5.2 | 138 to 140 | –
8 | C(=C\c1nc(-c2ccccc2)no1)/c1ccc2c(c1)OCCO2 [Compound 14, (E)-3-phenyl-5-[2-(3,4-ethylenedioxy-phenyl)vinyl]-1,2,4-oxadiazole] | <0.64 | 64 ± 3.2 | > 100 | 93.6 ± 5.9 | 84.5 ± 4.6 | 92.5 ± 3.8 | 60.5 ± 3.8 | <0.41 | 41.1 ± 4.9 | 143 to 145 | –
9 | Fc1ccc(/C=C/c2nc(-c3ccccc3)no2)cc1 [Compound 18, (E)-3-phenyl-5-[2-(4-fluorophenyl)vinyl]-1,2,4-oxadiazole] | <0.59 | 59.9 ± 12.2 | > 100 | 102 ± 11.5 | 90.7 ± 4.3 | > 100 | 82.8 ± 4.7 | <0.67 | 66.7 ± 9.6 | – | –
10 | COc1cccc(/C=C/c2nc(-c3ccccc3)no2)c1 [Compound 10, (E)-3-phenyl-5-[2-(3-methoxyphenyl)vinyl]-1,2,4-oxadiazole] | – | > 100 | > 100 | 85.4 ± 4 | 86.6 ± 3.6 | 50.8 ± 6.3 | 77.7 ± 6.3 | – | > 100 | 88 to 90 | –
